Measured values reported in patent publication US10472347B2, “Aminopyrazine compounds with A2A antagonist properties” (Merck Sharp & Dohme Corp., priority 2014, dated 2019).

Biological target: T1, human A2a receptor (Homo sapiens, UniProt P29274)
T1 construct: purchased Perkin-Elmer RBHA2AM400UA; host or cells: HEK293 cells (membranes)
Experiment: A2a competition binding assay, Scintillation Proximity technology
Details: membranes from HEK293 cells expressing human A2a receptor; Ki by Cheng-Prusoff equation
Procedure: Binding affinities of compounds of the invention for the human A2a receptor were determined in a competition binding assay using Scintillation Proximity technology. Thus, […] from HEK293 cells expressing the human A2a receptor were incubated with a compound of the invention at concentrations ranging from 3000 nM to 0.15 nM in a reaction mixture containing also 0.5 nM of a tritiated form of 5-amino-7-[2-phenethyl]-2-(furan-2-yl)-7H-pyrazolo[4,3-e][1,2,4]triazolo[1,5-c]pyrimidine (the tritiated compound) and 100 μg of wheat germ agglutin-coated yttrium silicate SPA beads for one hour at room temperature with agitation. The beads were then allowed to settle to the bottom of the wells for 1 hr, after which the membrane-associated radioactivity was determined by scintillation counting in a TopCount microplate reader. Ki values were determined using the Cheng-Prusoff equation.
HEK293 cells expressing the human, rat, dog or monkey adenosine 2a receptor (Purchased from Perkin-Elmer # RBHA2AM400UA).
The Tritiated compound was prepared in-house by MRL Radiochemistry according to published methods.
Wheat germ agglutinin-coated yttrium silicate SPA beads (GE Healthcare #RPNQ0023). Dilute to 25 mg/ml in assay buffer.
Assay Buffer was prepared in house: Dulbecco's calcium and magnesium free phosphate buffered saline+10 mM MgCl2
Adenosine deaminase from calf intestine, 10 mg/2 ml (Roche #10 102 105 001).
A2a antagonist standard (9-chloro-1-(2-furanyl)-[1,2,4]triazolo1,5-c]quinazolin-5-amine from Tocris Bioscience)
Make eight 1:3 serial dilutions in 100% DMSO from a 3 mM compound stock
Transfer 50 nl of compound into a 384-well OptiPlate (Perkin Elmer).
Typically, final concentrations of compound used in the assay ranged from 3000 nM to 0.152 nM.
Dilute a solution of the Tritiated compound to 1.25 nM in assay buffer. This is a 2.5× solution. The final concentration in the assay is 0.5 nM. Calculate the concentration by counting two 5 μl aliquots.
Use 0.25 ug of membrane/well. Dilute membranes to 9.7 μg/ml in assay buffer. Treat with 20 ug/ml adenosine deaminase (ADA) for 15 minutes at room temperature to degrade endogenous adenosine.
Use 100 μg/well wheat germ agglutinin-coated yttrium silicate SPA beads.
Mix ADA-treated membranes and SPA beads together for 30 min prior to assay.
To the Perkin-Elmer Optiplate-384 containing the compound titration add 20 μl of 2.5× solution of the Tritiated compound and 30 μl of the membrane-bead mixture. Incubate for one hour at room temperature with agitation.
Include total binding (assay buffer+1% DMSO) and non-specific binding (CGS15943, 1 μM) wells.
Allow the beads to settle for one hour.
A curve fitting program (i.e., Prism, Activity Base, Chemcart) is used to determine the EC50. The Ki value is calculated using the Cheng-Prusoff equation. Ki=EC50/(1+(radioligand concentration/Kd))

T1 sequence (P29274 whole entry): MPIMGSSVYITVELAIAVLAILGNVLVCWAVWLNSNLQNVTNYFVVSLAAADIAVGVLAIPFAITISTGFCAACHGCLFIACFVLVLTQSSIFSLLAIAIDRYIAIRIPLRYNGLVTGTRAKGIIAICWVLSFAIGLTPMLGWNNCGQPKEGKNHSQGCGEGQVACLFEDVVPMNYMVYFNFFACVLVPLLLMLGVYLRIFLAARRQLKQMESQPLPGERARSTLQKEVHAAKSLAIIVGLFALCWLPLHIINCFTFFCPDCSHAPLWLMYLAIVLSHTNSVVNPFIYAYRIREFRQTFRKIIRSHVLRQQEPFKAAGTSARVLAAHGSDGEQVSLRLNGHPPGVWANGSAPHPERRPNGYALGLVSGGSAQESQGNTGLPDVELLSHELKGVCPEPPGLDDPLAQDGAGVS

Ki [nM] | SMILES
2.27 | Cc1nc(C(=O)NCc2ncn(C(C)C)c2C)c(N)nc1-c1ncco1 [Ex-38, 3-amino-6-methyl-N-{[5-methyl-1-(1-methylethyl)-1H-imidazol-4-yl]methyl}-5-(1,3-oxazol-2-yl)pyrazine-2-carboxamide]
33.9 | Cc1nc(C(=O)NCc2cnco2)c(N)nc1-c1ncco1 [Ex-39, 3-amino-6-methyl-5-(1,3-oxazol-2-yl)-N-(1,3-oxazol-5-ylmethyl)pyrazine-2-carboxamide]
14.6 | Cc1nc(C(=O)NCc2ccns2)c(N)nc1-c1ncco1 [Ex-40, 3-amino-N-(isothiazol-5-ylmethyl)-6-methyl-5-(1,3-oxazol-2-yl)pyrazine-2-carboxamide]
0.593 | Cc1ccc(C)c(CNC(=O)c2nc(C)c(-c3ncco3)nc2N)n1 [Ex-41, 3-amino-N-[(3,6-dimethylpyridin-2-yl)methyl]-6-methyl-5-(1,3-oxazol-2-yl)pyrazine-2-carboxamide]
0.672 | Cc1nc(C(=O)NCc2cc(C(F)(F)F)ccn2)c(N)nc1-c1ncco1 [Ex-42, 3-amino-6-methyl-5-(1,3-oxazol-2-yl)-N-{[4-(trifluoromethyl)pyridin-2-yl]methyl}pyrazine-2-carboxamide]
0.116 | COc1cccnc1CNC(=O)c1nc(C)c(-c2ncco2)nc1N [Ex-43, 3-amino-N-[(3-methoxypyridin-2-yl)methyl]-6-methyl-5-(1,3-oxazol-2-yl)pyrazine-2-carboxamide]
0.533 | Cc1nc(C(=O)NCc2nccn2CC(F)F)c(N)nc1-c1ncco1 [Ex-44, 3-amino-N-{[1-(2,2-difluoroethyl)-1H-imidazol-2-yl]methyl}-6-methyl-5-(1,3-oxazol-2-yl)pyrazine-2-carboxamide]
0.735 | Cc1nc(C(=O)NCc2cc(Cl)ccn2)c(N)nc1-c1ncco1 [Ex-45, 3-amino-N-[(4-chloropyridin-2-yl)methyl]-6-methyl-5-(1,3-oxazol-2-yl)pyrazine-2-carboxamide]
5.59 | Cc1nc(C(=O)NCc2ccncc2Cl)c(N)nc1-c1ncco1 [Ex-46, 3-amino-N-[(3-chloropyridin-4-yl)methyl]-6-methyl-5-(1,3-oxazol-2-yl)pyrazine-2-carboxamide]
1.8 | Cc1nc(C(=O)NCc2ncc(F)cc2Cl)c(N)nc1-c1ncco1 [Ex-47, 3-amino-N-[(3-chloro-5-fluoropyridin-2-yl)methyl]-6-methyl-5-(1,3-oxazol-2-yl)pyrazine-2-carboxamide]
1.01 | Cc1ccnnc1CNC(=O)c1nc(C)c(-c2ncco2)nc1N [Ex-48, 3-amino-6-methyl-N-[(4-methylpyridazin-3-yl)methyl]-5-(1,3-oxazol-2-yl)pyrazine-2-carboxamide]
1.26 | Cc1nc(C(=O)NCc2ccc(Cl)cn2)c(N)nc1-c1ncco1 [Ex-49, 3-amino-N-[(5-chloropyridin-2-yl)methyl]-6-methyl-5-(1,3-oxazol-2-yl)pyrazine-2-carboxamide]
1.25 | Cc1nc(C(=O)NCc2cccn(C)c2=O)c(N)nc1-c1ncco1 [Ex-50, 3-amino-6-methyl-N-[(1-methyl-2-oxo-1,2-dihydropyridin-3-yl)methyl]-5-(1,3-oxazol-2-yl)pyrazine-2-carboxamide]
0.717 | Cc1nc(C(=O)NCc2ccccn2)c(N)nc1-c1ncco1 [Ex-51, 3-amino-6-methyl-5-(1,3-oxazol-2-yl)-N-(pyridin-2-ylmethyl)pyrazine-2-carboxamide]
4.88 | Cc1nc(C(=O)NCc2cccc[n+]2[O-])c(N)nc1-c1ncco1 [Ex-52, 3-amino-6-methyl-5-(1,3-oxazol-2-yl)-N-[(1-oxidopyridin-2-yl)methyl]pyrazine-2-carboxamide]
26.1 | Cc1nc(C(=O)NCc2ccc(F)nc2)c(N)nc1-c1ncco1 [Ex-53, 3-amino-N-[(6-fluoropyridin-3-yl)methyl]-6-methyl-5-(1,3-oxazol-2-yl)pyrazine-2-carboxamide]
1.77 | Cc1nc(C(=O)NCc2cc(C(F)(F)F)cc(Cl)n2)c(N)nc1-c1ncco1 [Ex-54, 3-amino-N-{[6-chloro-4-(trifluoromethyl)pyridin-2-yl]methyl}-6-methyl-5-(1,3-oxazol-2-yl)pyrazine-2-carboxamide]

Ki [nM] | SMILES
3.89 | COc1ccc(CNC(=O)c2nc(C)c(-c3ncco3)nc2N)nc1C(F)(F)F [Ex-55, 3-amino-N-{[5-methoxy-6-(trifluoromethyl)pyridin-2-yl]methyl}-6-methyl-5-(1,3-oxazol-2-yl)pyrazine-2-carboxamide]
21.5 | Cc1cnnc(CNC(=O)c2nc(C)c(-c3ncco3)nc2N)c1 [Ex-56, 3-amino-6-methyl-N-[(5-methylpyridazin-3-yl)methyl]-5-(1,3-oxazol-2-yl)pyrazine-2-carboxamide]
1.03 | Cc1nc(C(=O)NCc2ccc(F)cn2)c(N)nc1-c1ncco1 [Ex-57, 3-amino-N-[(5-fluoropyridin-2-yl)methyl]-6-methyl-5-(1,3-oxazol-2-yl)pyrazine-2-carboxamide]
4.56 | Cc1nc(C(=O)NCc2nccc(OCC(F)(F)F)c2C)c(N)nc1-c1ncco1 [Ex-58, 3-amino-6-methyl-N-{[3-methyl-4-(2,2,2-trifluoroethoxy)pyridin-2-yl]methyl}-5-(1,3-oxazol-2-yl)pyrazine-2-carboxamide]
14.8 | Cc1nc(C(=O)NCc2ccc(C(F)(F)F)cn2)c(N)nc1-c1ncco1 [Ex-59, 3-amino-6-methyl-5-(1,3-oxazol-2-yl)-N-{[5-(trifluoromethyl)pyridin-2-yl]methyl}pyrazine-2-carboxamide]
9.2 | Cc1nc(C(=O)NCC(C)(C)c2ccncc2)c(N)nc1-c1ncco1 [Ex-60, 3-amino-6-methyl-N-(2-methyl-2-pyridin-4-ylpropyl)-5-(1,3-oxazol-2-yl)pyrazine-2-carboxamide]
2.46 | Cc1nc(C(=O)NCc2cc(F)ccn2)c(N)nc1-c1ncco1 [Ex-61, 3-amino-N-[(4-fluoropyridin-2-yl)methyl]-6-methyl-5-(1,3-oxazol-2-yl)pyrazine-2-carboxamide]
0.622 | Cc1nc(C(=O)NCc2ncc(F)cc2F)c(N)nc1-c1ncco1 [Ex-62, 3-amino-N-[(3,5-difluoropyridin-2-yl)methyl]-6-methyl-5-(1,3-oxazol-2-yl)pyrazine-2-carboxamide]
2.52 | Cc1nc(C(=O)NCc2cc(C(F)F)cc(C(F)F)n2)c(N)nc1-c1ncco1 [Ex-63, 3-amino-N-{[4,6-bis(difluoromethyl)pyridin-2-yl]methyl}-6-methyl-5-(1,3-oxazol-2-yl)pyrazine-2-carboxamide]
1.5 | Cc1nc(C(=O)NCc2cccnc2O)c(N)nc1-c1ncco1 [Ex-64, 3-amino-N-[(2-hydroxypyridin-3-yl)methyl]-6-methyl-5-(1,3-oxazol-2-yl)pyrazine-2-carboxamide]
4.19 | Cc1nc(C(=O)NCc2cccnc2Cl)c(N)nc1-c1ncco1 [Ex-65, 3-amino-N-[(2-chloropyridin-3-yl)methyl]-6-methyl-5-(1,3-oxazol-2-yl)pyrazine-2-carboxamide]
24.4 | Cc1nc(C(=O)NC2CCN(c3ncccn3)CC2)c(N)nc1-c1ncco1 [Ex-66, 3-amino-6-methyl-5-(1,3-oxaol-2-yl)-N-(1-pyrimidin-2-ylpiperidin-4-yl)pyrazine-2-carboxamide]
64.1 | Cc1cnccc1CNC(=O)c1nc(C)c(-c2ncco2)nc1N [Ex-67, 3-amino-6-methyl-N-[(3-methylpyridin-4-yl)methyl]-5-(1,3-oxazol-2-yl)pyrazine-2-carboxamide]
27.3 | Cc1nc(C(=O)NCC(=O)N2CCC2)c(N)nc1-c1ncco1 [Ex-68, 3-amino-N-(2-azetidin-1-yl-2-oxoethyl)-6-methyl-5-(1,3-oxazol-2-yl)pyrazine-2-carboxamide]
56.5 | Cc1nc(C(=O)NCc2cncnc2)c(N)nc1-c1ncco1 [Ex-69, 3-amino-6-methyl-5-(1,3-oxazol-2-yl)-N-(pyrimidin-5-ylmethyl)pyrazine-2-carboxamide]
41 | Cc1ccc(CNC(=O)c2nc(C)c(-c3ncco3)nc2N)c(C)n1 [Ex-70, 3-amino-N-[(2,6-dimethylpyridin-3-yl)methyl]-6-methyl-5-(1,3-oxazol-2-yl)pyrazine-2-carboxamide]
